Data on five compounds can be found in patent US20050136491A1, “Method of site specific labeling of proteins and uses therefor” (SmithKline Beecham Corporation, priority 1999, published 2005).

Test [1] concerns the target T1, Factor XIIIa (Homo sapiens, UniProt P00488).
T1 construct: purchased Enzyme Research Laboratories
T1 sequence (P00488 39-732 limits assumed): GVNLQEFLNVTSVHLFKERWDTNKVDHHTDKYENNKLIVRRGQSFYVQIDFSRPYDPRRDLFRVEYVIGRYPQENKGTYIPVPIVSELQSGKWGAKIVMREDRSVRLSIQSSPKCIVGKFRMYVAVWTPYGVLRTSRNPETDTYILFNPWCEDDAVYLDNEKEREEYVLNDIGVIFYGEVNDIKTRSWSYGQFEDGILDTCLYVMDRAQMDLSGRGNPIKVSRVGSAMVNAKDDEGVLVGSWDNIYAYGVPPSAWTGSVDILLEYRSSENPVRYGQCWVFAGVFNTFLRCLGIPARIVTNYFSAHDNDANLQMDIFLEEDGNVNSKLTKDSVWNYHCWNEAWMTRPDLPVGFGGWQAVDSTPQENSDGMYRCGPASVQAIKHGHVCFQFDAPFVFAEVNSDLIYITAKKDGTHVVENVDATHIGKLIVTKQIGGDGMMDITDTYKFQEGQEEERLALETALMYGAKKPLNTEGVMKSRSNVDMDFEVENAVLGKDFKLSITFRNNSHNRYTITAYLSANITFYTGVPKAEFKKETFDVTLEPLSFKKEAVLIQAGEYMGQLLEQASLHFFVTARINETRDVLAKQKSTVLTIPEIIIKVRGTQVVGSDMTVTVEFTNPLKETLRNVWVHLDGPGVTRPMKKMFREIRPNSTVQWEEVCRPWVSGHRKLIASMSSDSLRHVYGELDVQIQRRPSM
Briefly: Factor XIII(a)-mediated labeling of ACP-Peptide 1 C-terminal fusion (C-tagged ACP). To be noted: for incorporation into ACP-Peptide 1 fusion: Mono Q ion exchange, 22 hr. It counts as biochemical. How it is done: A 270 units/ml reaction of Factor XIII was activated by 42 units/ml immobilized thrombin in Buffer 1:40 mM Tris-HCl, pH 8.3, 0.15 M NaCl. Cadaverine derivatives (rhodamine green and biotin) were used at 0.5 mM for each labeling reaction. The labeling reaction also contained 6 mM of DTT and 5 mM CaCl2. 0.5 mg/ml tagged ACP was used in the labeling reactions, against a 0.5 mg/ml native ACP control sample. Incubations were carried out at room temperature. Aliquots were taken from the mixtures at different time points and 50 mM EDTA was used to stop the labeling reaction (Factor XIII being Ca^2+ dependent). NuPAGE Tris-Glycine gels (4-12%) [Novex] were used to analyze the labeling results. The rhodamine green cadaverine labeling gel was observed under UV translumination, while the biotin cadaverine labeled protein was analyzed by Western blotting/streptavidin-HRP detection. […] No label was incorporated into the native ACP control under the conditions described above.
The ACP-peptide 1 C-terminal fusion was labeled with biotin cadaverine (Molecular Probes) in a reaction mixture of 0.5 mg/ml ACP-Peptide 1 fusion, 1.5 mM biotin-cadaverine and 504 units/ml Factor XIIIa. The efficiency of incorporation was determined by competitive ELISA to be 56%.
Novel biotinylation reagents (i.e. labeling compounds) were tested in an attempt to increase the yield. To this end, two biotinylated dipeptides, Biotin-Trp-Lys-OH and Biotin-NitroTyr-Lys-OH, were evaluated in a reaction mixture of 0.5 mg/ml ACP-Peptide 1 fusion, 1.5 mM biotin-cadaverine and 504 units/ml Factor XIIIa. Incorporation of the Biotin-Trp-Lys-OH dipeptide was shown by Mono Q ion exchange to be >85% (FIG. 2), in comparison to a 55% incorporation of the Biotin-NitroTyr-Lys dipeptide (FIG. 1). […] provides the C-tagged ACP standard. The identity of the modified peak was confirmed by addition of unmodified ACP at the end of the reaction (FIG. 4).

Test [2] addresses T2, Factor XIII (Homo sapiens, UniProt P00488).
T2 construct: purchased Enzyme Research Laboratories
T2 sequence (P00488 39-732 limits assumed): T1 sequence (P00488 39-732 limits assumed)
The test can be described thus: Factor XIII-mediated labeling of N-terminal Peptide 1-ACP fusion (N-tagged ACP). The format is biochemical. To be noted: analysed by N-terminal sequencing and mass mapping.

The mark [3] stands for this setting: 0.5 mg/ml fusion, 504 units/ml Factor XIIIa.

Square brackets hold non-standard residues; d marks the D form. Peptide text beside a SMILES is read from it. * marks the point of attachment. Tyr(3-NO2) = N[C@@H](Cc1ccc(O)c([N+](=O)[O-])c1)C(=O)O; Biotin = O=C1N[C@H]2[C@H](CS[C@H]2CCCCC(=O)*)N1

In the case of rhodamine green cadaverine, in test [1], the “efficiency of labeling of the ACP-Peptide 1 C-terminal fusion” value is listed as “greater than 90%”. The “extent of labeling of C-tagged ACP” value in test [1] (non-optimized reaction, estimated by high-resolution ion exchange) was “greater than 85%”.

On to biotin cadaverine, for which the “efficiency of incorporation into ACP-Peptide 1 C-terminal fusion” value in test [1] (competitive ELISA, 0.5 mg/ml fusion, 1.5 mM label, 504 units/ml Factor XIIIa) amounted to 56%.

As to `NCCCC[C@H](NC(=O)[C@H](Cc1ccc(O)c([N+](=O)[O-])c1)NC(=O)CCCC[C@@H]1SC[C@@H]2NC(=O)N[C@@H]21)C(=O)O` [Biotin-NitroTyr-Lys, Biotin-NitroTyr-Lys-OH] (Biotin-[Tyr(3-NO2)]-Lys-OH), in test [1] (setting [3]), the “incorporation into ACP-Peptide 1 fusion” value was determined as 55%.

Consider `NCCCC[C@H](NC(=O)[C@H](Cc1c[nH]c2ccccc12)NC(=O)CCCC[C@@H]1SC[C@@H]2NC(=O)N[C@@H]21)C(=O)O` [Biotin-Trp-Lys-OH] (Biotin-Trp-Lys-OH), for which the “incorporation into ACP-Peptide 1 fusion” value in test [1] (setting [3]) is listed as over 85%.

Consider `CN(C)c1cccc2c(S(=O)(=O)NCCCCCN)cccc12` [dansyl cadaverine], for which, in test [2], the “labeling efficiency of N-terminal Peptide 1-ACP fusion” value is on record as “greater than 90%”.
